{"source": "paper PMC4961458", "about": "(eLife, 2016)", "key": {"[1]": {"tested_on": "HCI-003 patient derived xenograft tumors", "assay": "HCI-003 patient derived xenograft efficacy", "type": "in vivo, mice", "details": "tamoxifen 60 mg/kg/day orally; fulvestrant 200 mg/kg 3x/week; 38 days", "description": "Like MCF7, HCI-003 tumors are ER+, E2 dependent and tamoxifen sensitive (Figure 4—figure supplement 1C). […] Lack of efficacy in this ER-negative model is consistent with the GDC-0810 mechanism of action being selectively mediated through ER.\nThe HCI-003 model was established at the University of Utah, Huntsman Cancer Center via direct implantation of both primary tumor material into immune compromised mice ([DeRose et al., 2011]). HCI-003 is wild-type at the ESR1 ligand binding domain. Exogenous estradiol is required for robust growth of this patient derived tumor line, and is supplied in the form of estradiol impregnated beeswax pellets. Tumor fragments obtained from the Huntsman Cancer Center were surgically implanted into the cleared mammary fat pad of 19 day old female NOD.CB17-Prkdc^scid/NcrCrl mice (Charles River Laboratories). The right mammary fat pad of recipient animals was exposed by a 1 cm incision on the ventral mid-line at the level of the fourth mammary. The blood vessels were cauterized and the fat pad blunt dissected from the abdominal wall and skin. Tumor fragments were excised from donor animals, chopped into fragments approximately 8 mm^3 (2 × 2 × 2 mm), implanted in the region of the cleared mammary fat pad, and the incision was closed with wound clips. Estradiol impregnated beeswax pellets were implanted subcutaneously into the interscapular space of recipient animals on the day of tumor implant. Recipient animals were ovariectomized 19 days after tumor fragment implant. One group of animals was designated as a control for estradiol independent tumor growth (Vehicle-E2) and the estradiol impregnated pellets were excised on the first day of dosing. All mice were housed and maintained according to the animal-use guidelines of the Institutional Animal Care and Use Committee (IACUC), conforming to California State legal and ethical practices."}, "[2]": {"tested_on": "WHIM20 tumors", "type": "in vivo, mice", "details": "no E2 pellets; GDC-0810 100 mg/kg/day; tamoxifen 60 mg/kg/day; fulvestrant 50 mg/kg days 1, 3 and 7, 25 mg/kg weekly thereafter; 35 days", "description": "Figure 8. […] (B) Gene expression analysis of WHIM20 tumors after 4 days of dosing, harvested 8 hr after the final dose. […] (E) WHIM20 tumors were implanted in mice without supplemental 17β-estradiol pellets.\nThe WHIM20 patient derived xenograft model (WHIM20) was established via direct implantation of metastatic tumor material into immune compromised mice at Washington University in St. Louis ([Li et al., 2013]).\nTumors were established from fragments obtained from Washington University by subcutaneous implantation via 10G trocar into the right flank of 6–7 week old female NOD.CB17-Prkdc^scid/NcrCrl mice (Charles River Laboratories) and NOD.Cg-Prkdc^scid Il2rg^tm1Wjl/SzJ mice (Jackson Laboratories). Tumor line was propagated by serial transplantation. Animals were ovariectomized prior to initiation of treatment."}, "[3]": {"tested_on": "uterus of juvenile rats", "assay": "Juvenile rat uterus assays", "type": "in vivo, Sprague Dawley rats", "details": "fulvestrant 50 mg/kg", "description": "[…] Rats were euthanized 4 hr after the final dose. Uteri were then dissected, weighed and fixed for histological examination. A small portion of tissue was saved prior to fixation for mRNA isolation and gene expression analysis.\nH&E stained sections from bilateral representative uterine horn cross-sections were examined from two animals treated with the compounds shown. Endometrial cell height was digitally measured from the basement membrane to the apical (luminal) surface (orange line), using a digitally scanned image at 20X magnification. Obliquely cut areas were avoided. Three digital measurements were taken from each section (n = 6).\nEstrogen receptor was detected using the mouse monoclonal anti-ER (clone 1D5, Dako), incubated for 60 min at RT at a dilution of 0.5 µg/ml, and visualized after secondary rabbit anti-mouse antibody binding with Powervision DAB (Leica Powersystems). H-scores were estimated manually, incorporating both intensity and percentage of positive nuclei, using the following formula: (0 x% negative)+(1 x% weak)+(2 x% moderate)+(3 x% strong)"}, "[4]": {"tested_on": "TamR1 tumors", "assay": "Tamoxifen-resistant MCF7 (TamR1) xenograft efficacy", "type": "in vivo, mice", "details": "0.18 mg 60 day E2 pellets; tamoxifen 120 mg/kg/day p.o.; fulvestrant 200 mg/kg 3x/week s.c.; GDC-0810 10, 30 or 100 mg/kg/day p.o.; 27 days", "experimental": "We previously generated a tamoxifen-resistant xenograft model, TamR1, by chronically treating MCF7 tumor bearing mice with tamoxifen until a resistant tumor emerged ([Lai et al., 2015]). […] These experiments were conducted in mice with relatively high levels of circulating estradiol, with estradiol being delivered via 0.72 mg 60 day release E2 pellets that are reported by the manufacturer (Innovative Research) to deliver between 300 and 400 pg/ml estradiol. Under these conditions the high E2 reduces the steady state ERα protein levels, thus confounding the readout of ERα protein as a pharmacodynamic endpoint (Figure 5—figure supplement 1). […] These pellets are sufficient to support tumor growth but only modestly reduce ERα levels (Figure 5—figure supplement 1).\nFigure 5. […] (A) Tamoxifen-resistant MCF7 tumors were implanted in animals supplemented with 60-day release 0.18 mg 17β-estradiol pellets. […] S.c. is sub-cutaneous dosing, and p.o. is per os (by mouth) oral gavage dosing. * Denotes significance (p<0.05) compared to Vehicle in 1-Way ANOVA and Dunnett's Multiple Comparison Test. Figure 5—figure supplement 1. Effects of estradiol pellet on ERα levels in MCF7-TamR1 xenograft tumors. TamR1 tumor fragments were implanted into Crl:NU-Foxn1^nu mice implanted with either 0.72 or 0.18 mg/60 day 17-β estradiol pellets. Once tumors were established pellets were removed from 1 group. 28 days after pellet removal ERα protein levels were determined for 4 tumors from each group. Data is presented as average compared to Vehicle (-E2). Error is standard deviation. * Denotes significance (p<0.05) compared to Vehicle (-E2) by T-test. [drawing 7] […] (A) ERα protein levels were determined by western blot analysis of tumors 8 hr following the final compound treatment on day 27. […] KI-67 expression, quantified from IHC analysis. […]\nThe tamoxifen-resistant derivative of the ER+ human tumor cell line, MCF7 (TamR1) was developed by Seragon Pharmaceuticals, Inc ([Lai et al., 2015]). […] The tumors which continued to grow under these conditions were serially passaged and evaluated for continued tamoxifen resistance. […]"}}, "data": [{"smiles": "CC/C(=C(\\c1ccccc1)c1ccc(OCCN(C)C)cc1)c1ccccc1", "note": "[Tamoxifen]", "values": [{"measurement": "Anti-tumor activity, HCI-003 PDX (Figure 4—figure supplement 1C)", "setting": "[1]", "result": "display anti-tumor activity"}, {"measurement": "Tumor growth response, WHIM20 PDX", "setting": "[2]", "result": "induced tumor stasis"}, {"measurement": "Uterine wet weight", "setting": "[3]; tamoxifen 60 mg/kg orally once a day for 3 days, GDC-0810 0.1 or 10 mg/kg, relative to vehicle control", "result": "increases uterine wet weight"}, {"measurement": "Endometrial epithelial cell morphology (histology, endometrial cell height)", "setting": "[3]; tamoxifen 60 mg/kg, GDC-0810 0.1 and 10 mg/kg", "result": "induced a cuboidal to columnar morphological change"}, {"measurement": "Tumor growth response, TamR1 xenograft, lower E2", "setting": "[4]", "result": "stimulated tumor growth"}]}]}
